Assays:
[1] = system: HT29 human colon adenocarcinoma cells; assay: MTT cell proliferation assay, HT29 cells; type: cell-based; conditions: HT-29, 72 h treatment, untreated control = 100% viability, read-out: IC50, growth inhibition of HT29 cells
Procedure: (§1) These studies were performed using a 3-(4,5-dimethylthiazol-2-yl)-2,5-diphenyltetrazolium bromide (MTT) assay, with increasing concentration levels of each compound (0–200 μg/mL). Cell viability was determined after treatment for 72 h, by absorption of a formazan dye.
(§2) […] ATTC HTB-38), Hep G2 human hepatocyte carcinoma cells (ECACC 85011430), nontumor human epithelial lung fibroblast cells HPF (ScienCell catalog (cat.) no. 3300), nontumor rat ileum cells IEC-18 (ECACC no. 88011801), and nontumor human embryo liver cells (ECACC 89121403) were cultured in DMEM medium supplemented with 2 mM glutamine, 10% heat-inactivated fetal bovine serum (FCS), 10.000 units/mL penicillin, and […]. These cells were incubated at 37 °C in an atmosphere of 5% CO2 and 95% humidity. The culture media were changed every 48 h, and the confluent cultures were separated with a trypsin solution (0.25% EDTA). Subconfluent monolayer cells were used in all experiments. All cell lines used were provided by the cell bank of the University of Granada (Spain).
(§3) The effect of the synthesized compounds on the viability of tumor cells was assessed using an MTT assay, based on the ability of living cells to cleave the tetrazolium ring, thus producing formazan, which absorbs at 570 nm. […] For an evaluation of the cytotoxic effects of these compounds, the cells were seeded in 96-well plates at an initial density of 5 × 10^3 B16–F10 cells, 6 × 10^3 HT29 cells, 15 × 10^3 Hep G2 cells, 8 × 10^3 HPF cells, 15 × 10^3 IEC-18 cells, and 11 × 10^3 WRL68 cells, per well. After incubation for 24 h, the cells were treated with the synthesized compounds in triplicate, at different concentrations (0–200 μg/mL), and incubated for 72 h. Thereafter, 100 μL of MTT solution (0.5 mg/mL) were added to each well. After 2 h of incubation, the cells were washed twice with phosphate buffered saline (PBS), and the formazan was resuspended in 100 μL of DMSO. Relative cell viability, with respect to untreated control cells, was measured by absorbance at 550 nm on an ELISA plate reader (Tecan Sunrise MR20-301, TECAN, Austria). […] These experiments were measured and compared to the control after 72 h of treatment.

[2] = system: Hep G2 human hepatocyte carcinoma cells; assay: MTT cell proliferation assay, Hep G2 cells; type: cell-based; conditions: HepG2, 72 h treatment, untreated control = 100% viability, read-out: IC50, growth inhibition of Hep G2 cells
Procedure: as §1, §2, §3

[3] = system: B16–F10 murine melanoma cells; assay: MTT cell proliferation assay, B16–F10 cells; type: cell-based; conditions: Mus musculus, 72 h treatment, untreated control = 100% viability, read-out: IC50, growth inhibition of B16–F10 cells
Procedure: as §1, §2, §3

[4] = system: B16-F10, HT29, and Hep G2 cancer cell lines; assay: MTT assay, statements over the three cancer cell lines; type: cell-based; conditions: 72 h, read-out: IC50 (cytotoxicity), cell line not distinguished
Procedure: as §1, with “dye. […] In these three cancer cell lines, the concentration of the compounds that reduced the response by half (IC50) was determined (Table 1).” for “dye.”
The effect of the synthesized compounds on the viability of tumor cells was assessed using an MTT assay, based on the ability of living cells to cleave the tetrazolium ring, thus producing formazan, which absorbs at 570 nm. The MA conjugates (1–12) were assayed against the selected cancer cell lines. For an evaluation of the cytotoxic effects of these compounds, the cells were seeded in 96-well plates at an initial density of 5 × 10^3 B16–F10 cells, 6 × 10^3 HT29 cells, 15 × 10^3 Hep G2 cells, 8 × 10^3 HPF cells, 15 × 10^3 IEC-18 cells, and 11 × 10^3 WRL68 cells, per well. After incubation for 24 h, the cells were treated with the synthesized compounds in triplicate, at different concentrations (0–200 μg/mL), and incubated for 72 h. […] Relative cell viability, with respect to untreated control cells, was measured by absorbance at 550 nm on an ELISA plate reader (Tecan Sunrise MR20-301, TECAN, Austria). […] These experiments were measured and compared to the control after 72 h of treatment.

Row | SMILES | IC50 [1] [µM] | IC50 [2] [µM] | IC50 [3] [µM] | IC50 [4] [µM] | melting point [°C]
1 | Cc1cc(=O)oc2cc(NC(=O)[C@]34CCC(C)(C)C[C@H]3C3=CC[C@@H]5[C@@]6(C)C[C@@H](O)[C@H](O)C(C)(C)[C@@H]6CC[C@@]5(C)[C@]3(C)CC4)ccc12 [Compound 11, 2α,3β-dihydroxy-N-(4-methyl-2-oxo-2H-chromen-7-yl)-olean-12-en-28-amide] | > 10 | > 10 | > 10 | > 10 | 
2 | O=C(O)/C=C/c1ccc(O)cc1 [PCA, p-coumaric acid, reference compound] | > 10 | > 10 | > 10 |  | 
3 | Cc1cc(=O)oc2cc(NC(=O)[C@]34CCC(C)(C)C[C@H]3C3=CC[C@@H]5[C@@]6(C)C[C@@H](OC(=O)c7cc8ccccc8oc7=O)[C@H](OC(=O)c7cc8ccccc8oc7=O)C(C)(C)[C@@H]6CC[C@@]5(C)[C@]3(C)CC4)ccc12 [Compound 12, N-(4‴-Methyl-2‴-oxo-2‴H-chromen-7‴-yl)-2α,3β-bis((2′-oxo-2′H-chromene-3′-carbonyl)oxy)-olean-12-en-28-amide] | > 10 | > 10 | > 10 | > 10 | 206 to 208
4 | CC1(C)CC[C@]2(C(=O)NCCCCCCCCCCNC(=O)/C=C/c3ccc(O)cc3)CC[C@]3(C)C(=CC[C@@H]4[C@@]5(C)C[C@@H](O)[C@H](O)C(C)(C)[C@@H]5CC[C@]43C)[C@@H]2C1 [Compound 9, 2α,3β-Dihydroxy-N-(10′-((E)-3″-(4‴-hydroxyphenyl)acrylamido)decyl)olean-12-en-28-amide] | > 10 | > 10 | > 10 |  | 104 to 106
5 | CC1(C)CC[C@]2(C(=O)NCCCCCCNC(=O)/C=C/c3ccc(O)cc3)CC[C@]3(C)C(=CC[C@@H]4[C@@]5(C)C[C@@H](O)[C@H](O)C(C)(C)[C@@H]5CC[C@]43C)[C@@H]2C1 [Compound 8, 2α,3β-Dihydroxy-N-(6′-((E)-3″-(4‴-hydroxyphenyl)acrylamido)hexyl)olean-12-en-28-amide] | > 10 | > 10 | > 10 |  | 76 to 78
6 | CC1(C)CC[C@]2(C(=O)NCCCCCCCCCCNC(=O)Cc3cc(=O)oc4cc(O)ccc34)CC[C@]3(C)C(=CC[C@@H]4[C@@]5(C)C[C@@H](O)[C@H](O)C(C)(C)[C@@H]5CC[C@]43C)[C@@H]2C1 [Compound 6, 2α,3β-Dihydroxy-N-(10′-(2″-(7‴-hydroxy-2‴-oxo-2‴H-chromen-4‴-yl)acetamido)decyl)olean-12-en-28-amide] | > 10 | > 10 | > 10 |  | 120 to 122
7 | CC1(C)CC[C@]2(C(=O)NCCCCCCCCCCNC(=O)c3cc4ccccc4oc3=O)CC[C@]3(C)C(=CC[C@@H]4[C@@]5(C)C[C@@H](O)[C@H](O)C(C)(C)[C@@H]5CC[C@]43C)[C@@H]2C1 [Compound 3, 2α,3β-Dihydroxy-N-(10′-(2″-oxo-2″H-chromene-3″-carboxamido)decyl)olean-12-en-28-amide] | > 10 | > 10 | > 10 |  | 86 to 88
8 | CC1(C)CC[C@]2(C(=O)NCCCCCCNC(=O)c3cc4ccccc4oc3=O)CC[C@]3(C)C(=CC[C@@H]4[C@@]5(C)C[C@@H](O)[C@H](O)C(C)(C)[C@@H]5CC[C@]43C)[C@@H]2C1 [Compound 2, 2α,3β-Dihydroxy-N-(6′-(2″-oxo-2″H-chromene-3″-carboxamido)hexyl)olean-12-en-28-amide] | > 10 | > 10 | > 10 |  | 73 to 75
9 | O=C(O)Cc1cc(=O)oc2cc(O)ccc12 [HCAA, 7-hydroxycoumarinyl-4-acetic acid, reference compound] | > 10 | > 10 | > 10 |  | 
10 | CC1(C)CC[C@]2(C(=O)O)CC[C@]3(C)C(=CC[C@@H]4[C@@]5(C)C[C@@H](O)[C@H](O)C(C)(C)[C@@H]5CC[C@]43C)[C@@H]2C1 [MA (I), 2α,3β-dihydroxyolean-12-en-28-oic acid, reference compound] | > 10 | > 10 | > 10 |  | 
11 | CC1(C)CC[C@]2(C(=O)NCCCCCCNC(=O)Cc3cc(=O)oc4cc(O)ccc34)CC[C@]3(C)C(=CC[C@@H]4[C@@]5(C)C[C@@H](O)[C@H](O)C(C)(C)[C@@H]5CC[C@]43C)[C@@H]2C1 [Compound 5, 2α,3β-Dihydroxy-N-(6′-(2″-(7‴-hydroxy-2‴-oxo-2‴H-chromen-4‴-yl)acetamido)hexyl)olean-12-en-28-amide] | > 10 | > 10 | > 10 |  | 139 to 141
12 | O=C(O)c1cc2ccccc2oc1=O [C3CA, coumarin-3-carboxylic acid, reference compound] | > 10 | > 10 | > 10 |  | 
